Laboratory results taken from patent publication US11612604B2, “Methods of treating cancer with PLK4 inhibitors” (LUDWIG INSTITUTE FOR CANCER RESEARCH LTD, priority 2017, dated 2023).

target: T1, PLK4 (Homo sapiens, UniProt O00444); experiment: Activity (IC50) of the Table 1 compounds as PLK4 inhibitors; format: biochemical; conditions: Table 1, IC50 class
T1 sequence (O00444 1-970): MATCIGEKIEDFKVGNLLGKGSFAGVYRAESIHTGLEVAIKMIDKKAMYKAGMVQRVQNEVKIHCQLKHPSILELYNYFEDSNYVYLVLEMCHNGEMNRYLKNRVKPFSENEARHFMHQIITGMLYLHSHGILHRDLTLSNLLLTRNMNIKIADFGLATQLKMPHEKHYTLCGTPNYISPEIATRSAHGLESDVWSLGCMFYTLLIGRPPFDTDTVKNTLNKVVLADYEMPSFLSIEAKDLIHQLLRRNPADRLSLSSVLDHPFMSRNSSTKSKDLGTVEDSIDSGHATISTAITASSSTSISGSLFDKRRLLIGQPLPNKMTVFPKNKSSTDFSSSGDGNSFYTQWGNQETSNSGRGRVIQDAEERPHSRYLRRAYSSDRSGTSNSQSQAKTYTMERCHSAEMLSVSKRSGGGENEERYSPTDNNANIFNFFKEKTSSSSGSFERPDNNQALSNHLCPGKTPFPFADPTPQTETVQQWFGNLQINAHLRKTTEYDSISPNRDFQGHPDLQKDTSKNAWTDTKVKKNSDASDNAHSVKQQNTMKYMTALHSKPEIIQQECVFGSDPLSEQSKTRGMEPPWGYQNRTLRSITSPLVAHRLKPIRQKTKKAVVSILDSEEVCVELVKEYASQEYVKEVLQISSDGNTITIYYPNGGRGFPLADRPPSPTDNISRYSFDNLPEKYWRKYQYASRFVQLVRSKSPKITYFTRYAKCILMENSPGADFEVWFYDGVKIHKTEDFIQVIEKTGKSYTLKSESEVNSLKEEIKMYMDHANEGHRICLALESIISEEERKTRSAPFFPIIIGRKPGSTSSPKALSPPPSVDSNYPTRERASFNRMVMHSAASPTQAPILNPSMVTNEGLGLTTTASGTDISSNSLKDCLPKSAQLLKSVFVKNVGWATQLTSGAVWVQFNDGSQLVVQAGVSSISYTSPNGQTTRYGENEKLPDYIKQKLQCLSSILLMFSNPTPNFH

IC50	Compound
< 100 nM	Cc1cc(Nc2nc(Sc3ccc(NC(=O)C4CC4)cc3)nc(N3CCN(C)CC3)c2C)n[nH]1
< 100 nM	CNc1nc(Sc2ccc(NC(=O)C3CC3)cc2)nc(Nc2cc(C)[nH]n2)c1C
< 100 nM	CCNc1nc(Sc2ccc(NC(=O)C3CC3)cc2)nc(Nc2cc(C)[nH]n2)c1C
< 100 nM	CCCC(=O)Nc1ccc(Sc2nc(Nc3cc(C)[nH]n3)c(C)c(N3CCN(C)CC3)n2)cc1
< 100 nM	Cc1cc(Nc2nc(Sc3ccc(NC(=O)C4CC4)cc3)nc(NC(C)C)c2C)n[nH]1
< 100 nM	CCN(C)c1nc(Sc2ccc(NC(C)=O)cc2)nc(Nc2cc(C)[nH]n2)c1C
< 100 nM	CC(=O)Nc1ccc(Sc2nc(Nc3cc(C)[nH]n3)c(C)c(N(C)C)n2)cc1
< 100 nM	COc1c(Nc2cc(C)[nH]n2)nc(Sc2ccc(NC(C)=O)cc2)nc1N1CCC(CCN2CCOCC2)CC1
< 100 nM	COc1c(Nc2cc(C)[nH]n2)nc(Sc2ccc(NC(C)=O)cc2)nc1NC1CCNCC1
< 100 nM	CCc1cc(Nc2nc(SC)nc(N3CCN(CCN(C)C)CC3)c2OC)n[nH]1
< 100 nM	CCc1cc(Nc2nc(SC)nc(N3CCN(CCN(C)C)CC3)c2C)n[nH]1
< 100 nM	COc1c(Nc2cc(C)[nH]n2)nc(Sc2ccc(NC(C)=O)nc2)nc1N1CCOCC1
< 100 nM	COc1c(Nc2cc(C)[nH]n2)nc(Sc2ccc(S(=O)(=O)C(C)(C)c3ncc[nH]3)cc2)nc1N1CCN(CCN(C)C)CC1
< 100 nM	COc1c(Nc2cc(C)[nH]n2)nc(Sc2ccc(S(=O)(=O)C(C)(C)c3cccc([N+](=O)[O-])c3F)cc2F)nc1N1CCC(C(N)=O)CC1
< 100 nM	COc1c(Nc2cc(C)[nH]n2)nc(Sc2ccc(S(=O)(=O)C(C)(C)c3cccc([N+](=O)[O-])c3F)cc2F)nc1N1CCN(C(C)=O)CC1
< 100 nM	COc1c(Nc2cc(C)[nH]n2)nc(Sc2ccc(S(=O)(=O)C(C)(C)c3cccc([N+](=O)[O-])c3F)cc2F)nc1N1CCC(C(=O)N(C)C)CC1
< 100 nM	COc1c(Nc2cc(C)[nH]n2)nc(Sc2ccc(S(=O)(=O)C(C)(C)c3c(F)c(F)cc(F)c3F)cc2F)nc1N1CCC(CCNC(C)=O)CC1
< 100 nM	COc1c(Nc2cc(C)[nH]n2)nc(Sc2ccc(S(=O)(=O)C(C)(C)c3c(F)c(F)cc(F)c3F)cc2F)nc1N1CCC(CCN)CC1
< 100 nM	COc1c(Nc2cc(C)[nH]n2)nc(Sc2ccc(S(=O)(=O)C3(c4cccc([N+](=O)[O-])c4F)CC3)cc2F)nc1N1CCN(CCNC(C)=O)CC1
< 100 nM	COc1c(Nc2cc(C)[nH]n2)nc(Sc2ccc(S(=O)(=O)C(C)(C)c3c(F)c(F)cc(F)c3F)cc2F)nc1N1CCN(C(C)=O)CC1
< 100 nM	COc1c(Nc2cc(C)[nH]n2)nc(Sc2ccc(S(=O)(=O)Cc3cccc([N+](=O)[O-])c3F)cc2F)nc1N1CCC(NC(C)=O)CC1

IC50	Compound
< 100 nM	COc1c(Nc2cc(C)[nH]n2)nc(Sc2ccc(S(=O)(=O)C3(c4cccc([N+](=O)[O-])c4F)CC3)cc2F)nc1N1CCC(CN(C)C)CC1
< 100 nM	COc1c(Nc2cc(C)[nH]n2)nc(Sc2ccc(S(=O)(=O)C3(c4cccc([N+](=O)[O-])c4F)CC3)cc2F)nc1N1CCC(C(N)=O)CC1
< 100 nM	COc1c(Nc2cc(C)[nH]n2)nc(Sc2ccc(S(=O)(=O)C(C)(C)c3c(F)c(F)cc(F)c3F)cc2F)nc1N1CCC(N)C1 (stereo not drawn)
< 100 nM	COc1c(Nc2cc(C)[nH]n2)nc(Sc2ccc(S(=O)(=O)C(C)(C)c3c(F)c(F)cc(F)c3F)cc2F)nc1N1CCC(N)CC1
< 100 nM	COc1c(Nc2cc(C)[nH]n2)nc(Sc2ccc(S(=O)(=O)C(C)(C)c3cccc([N+](=O)[O-])c3F)cc2F)nc1N1CCC(N)C1 (stereo not drawn)
< 100 nM	COc1c(Nc2cc(C)[nH]n2)nc(Sc2ccc(S(=O)(=O)Cc3cccc([N+](=O)[O-])c3F)cc2F)nc1N1CCC(CC(N)=O)CC1
< 100 nM	COc1c(Nc2cc(C)[nH]n2)nc(Sc2ccc(S(=O)(=O)Cc3cccc([N+](=O)[O-])c3F)cc2F)nc1N1CCC(CCNC(C)=O)CC1
< 100 nM	COc1c(Nc2cc(C)[nH]n2)nc(Sc2ccc(S(=O)(=O)C3(c4c(F)c(F)cc(F)c4F)CC3)cc2F)nc1N1CCOCC1
< 100 nM	COc1c(Nc2cc(C)[nH]n2)nc(Sc2ccc(S(=O)(=O)C(C)(C)c3cccc([N+](=O)[O-])c3F)cc2F)nc1N1CCC(NC(=O)C(F)(F)F)CC1
< 100 nM	COc1c(Nc2cc(C)[nH]n2)nc(Sc2ccc(S(=O)(=O)C(C)(C)c3c(F)c(F)cc(F)c3F)cc2F)nc1N1CCC(CC(N)=O)CC1
< 100 nM	COc1c(Nc2cc(C)[nH]n2)nc(Sc2ccc(S(=O)(=O)C(C)(C)c3c(F)c(F)cc(F)c3F)cc2F)nc1N1CCC(CN)CC1
< 100 nM	COc1c(Nc2cc(C)[nH]n2)nc(Sc2ccc(S(=O)(=O)C3(c4cccc([N+](=O)[O-])c4F)CC3)cc2F)nc1N1CCC(CCN(C)C)CC1
< 100 nM	COc1c(Nc2cc(C)[nH]n2)nc(Sc2ccc(S(=O)(=O)C3(c4cccc([N+](=O)[O-])c4F)CC3)cc2F)nc1N1CCOCC1
< 100 nM	COc1c(Nc2cc(C)[nH]n2)nc(Sc2ccc(S(=O)(=O)C3(c4cccc([N+](=O)[O-])c4F)CC3)cc2F)nc1N1CCN(CCN(C)C)CC1
< 100 nM	COc1c(Nc2cc(C)[nH]n2)nc(Sc2ccc(S(=O)(=O)C3(c4cccc([N+](=O)[O-])c4F)CC3)cc2F)nc1N1CCC(CC(N)=O)CC1
< 100 nM	COc1c(Nc2cc(C)[nH]n2)nc(Sc2ccc(S(=O)(=O)C3(c4cccc([N+](=O)[O-])c4F)CC3)cc2F)nc1N1CCC(NC(C)=O)CC1
< 100 nM	COc1c(Nc2cc(C)[nH]n2)nc(Sc2ccc(S(=O)(=O)C(C)(C)c3c(F)c(F)cc(F)c3F)cc2F)nc1N1CCNCC1
< 100 nM	COc1c(Nc2cc(C)[nH]n2)nc(Sc2ccc(S(=O)(=O)C3(c4cccc([N+](=O)[O-])c4F)CC3)cc2F)nc1N1CCC(NC(=O)C(F)(F)F)CC1
< 100 nM	COc1c(Nc2cc(C)[nH]n2)nc(Sc2ccc(S(=O)(=O)C3(c4cccc([N+](=O)[O-])c4F)CC3)cc2F)nc1N1CCC(C(=O)N(C)C)CC1
< 100 nM	COc1c(Nc2cc(C)[nH]n2)nc(Sc2ccc(S(=O)(=O)C3(c4cccc([N+](=O)[O-])c4F)CC3)cc2F)nc1N1CCNCC1
< 100 nM	COc1c(Nc2cc(C)[nH]n2)nc(Sc2ccc(S(=O)(=O)C3(c4cccc([N+](=O)[O-])c4F)CC3)cc2F)nc1N1CCC(N)CC1

IC50	Compound
< 100 nM	COc1c(Nc2cc(C)[nH]n2)nc(Sc2ccc(S(=O)(=O)C3(c4cccc([N+](=O)[O-])c4F)CC3)cc2F)nc1N1CCC(CN)CC1
< 100 nM	COc1c(Nc2cc(C)[nH]n2)nc(Sc2ccc(S(=O)(=O)C(C)(C)c3cccc([N+](=O)[O-])c3F)cc2F)nc1N1CCC(CCNC(=O)C(F)(F)F)CC1
< 100 nM	COc1c(Nc2cc(C)[nH]n2)nc(Sc2cccc(NC(C)=O)c2)nc1N1CCN(CCN(C)C)CC1
< 100 nM	COc1c(Nc2cc(C)[nH]n2)nc(Sc2cccc(NC(C)=O)c2)nc1N1CCOCC1
< 100 nM	COc1c(Nc2cc(C)[nH]n2)nc(Sc2ccc(NC(C)=O)cc2)nc1N1CCN(CC(=O)N2CCOCC2)CC1
< 100 nM	COc1c(Nc2cc(C)[nH]n2)nc(Sc2ccc(NC(C)=O)cc2)nc1N1CCN(CC(=O)C2CCCCC2)CC1
< 100 nM	Cc1cc(Nc2nc(Sc3ccc([N+](=O)[O-])cc3)nc3c2CCC32CCN(C(=O)C(C)(C)C)CC2)n[nH]1
100 to 1000 nM	Cc1cc(Nc2nc(Sc3ccc([N+](=O)[O-])cc3)nc3c2CCC32CCNCC2)n[nH]1
< 100 nM	CC(=O)Nc1ccc(Sc2nc(Nc3cc(C)[nH]n3)c3c(n2)C2(CC3)CCN(C(=O)C(C)(C)C)CC2)cc1
< 100 nM	COc1c(Nc2cc(C)[nH]n2)nc(Sc2ccc([N+](=O)[O-])cc2)nc1N1CCN(CCN(C)C)CC1
< 100 nM	COc1c(Nc2cc(C)[nH]n2)nc(Sc2ccc(NC(C)=O)cc2)nc1C1=CCNCC1
< 100 nM	COc1c(Nc2cc(C)[nH]n2)nc(Sc2ccc(NC(C)=O)cc2)nc1N1CCN(CCN(C)C)C(C)C1 (stereo not drawn)
< 100 nM	COc1c(Nc2cc(C)[nH]n2)nc(Sc2ccc(NC(C)=O)cc2)nc1C1=CCN(CC(=O)N(C)C)CC1
< 100 nM	COc1c(Nc2cc(C)[nH]n2)nc(Sc2ccc(NC(C)=O)cc2)nc1C1=CCN(CCN(C)C)CC1
< 100 nM	COc1c(Nc2cc(C)[nH]n2)nc(Sc2ccc(NC(C)=O)cc2)nc1N1CCN(CCN(C)C)CC1C (stereo not drawn)
< 100 nM	COc1c(Nc2cc(C)[nH]n2)nc(Sc2ccc(NC(C)=O)cc2)nc1C1=CCN(C)CC1
< 100 nM	CC(=O)Nc1ccc(Sc2nc(Nc3cc(C)[nH]n3)c3c(n2)C2(CC3)CCN(CCN(C)C)CC2)cc1
< 100 nM	Cc1cc(Nc2nc(Sc3ccc([N+](=O)[O-])cc3)nc3c2CCC32CCN(CCN(C)C)CC2)n[nH]1
< 100 nM	Cc1cc(Nc2nc(Sc3ccc(N)cc3)nc3c2CCC32CCN(CCN(C)C)CC2)n[nH]1
< 100 nM	COc1c(Nc2cc(C)[nH]n2)nc(Sc2ccc(NC(C)=O)cc2)nc1N1CCN(CCN2CCCC2)CC1
< 100 nM	CCN(C)CCN1CCN(c2nc(Sc3ccc(NC(C)=O)cc3)nc(Nc3cc(C)[nH]n3)c2OC)CC1
